According to article PMC6213216, “AbeTx1 Is a Novel Sea Anemone Toxin with a Dual Mechanism of Action on Shaker-Type K^+ Channels Activation” (Marine Drugs, 2018):
Positions of bridges follow the written chain, without caps; N, C: chain ends. Residues, ends and D or L forms follow the SMILES beside them.

Columns and labels:
rKV1.6 = target: T1, rKV1.6 (Rattus norvegicus, UniProt P17659); test: Two-electrode voltage-clamp on Xenopus laevis oocytes expressing rKV1.6; assay type: cell-based; conditions: concentration-response curve, percentage blocked current fitted with Hill equation; TEVC oocytes, 0 mV from −90 mV; mean ± SE, n ≥ 3; SEM; read-out: KV1.6 IC50
T1 construct: expressed in transfected cells; host or cells: Xenopus laevis oocytes injected with cRNA
T1 sequence (P17659 whole entry): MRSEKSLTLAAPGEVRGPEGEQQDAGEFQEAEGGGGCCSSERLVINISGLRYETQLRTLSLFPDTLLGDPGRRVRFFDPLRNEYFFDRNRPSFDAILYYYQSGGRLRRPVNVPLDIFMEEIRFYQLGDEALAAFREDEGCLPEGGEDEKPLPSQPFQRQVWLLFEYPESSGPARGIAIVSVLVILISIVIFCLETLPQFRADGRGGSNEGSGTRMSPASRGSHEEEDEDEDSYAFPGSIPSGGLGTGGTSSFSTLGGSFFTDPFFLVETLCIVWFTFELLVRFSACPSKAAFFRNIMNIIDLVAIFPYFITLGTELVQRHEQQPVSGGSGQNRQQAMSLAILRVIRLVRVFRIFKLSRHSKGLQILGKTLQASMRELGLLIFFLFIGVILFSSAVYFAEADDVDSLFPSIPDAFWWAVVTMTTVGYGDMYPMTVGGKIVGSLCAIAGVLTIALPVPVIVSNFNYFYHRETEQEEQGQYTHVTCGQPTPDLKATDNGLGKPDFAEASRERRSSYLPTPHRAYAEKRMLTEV
Description: (§1) The pharmacological effect of AbeTx1 was analyzed by heterologous expression of 12 voltage-gated potassium channels isoforms (rKV1.1, Genbank NM173095; rKV1.2, Genbank NM012970; hKV1.3, Genbank L23499; rKV1.4,Genbank NM012971; rKV1.5, Genbank NM012972; rKV1.6, Genbank NM575671; Shaker IR from Drosophila melanogaster, Genbank CG12348; rKV2.1, Genbank NM013186; hKV3.1, Genbank NM004976; rKV4.2, Genbank NM031730; rKV4.3, Genbank NM031739 and hERG, Genbank NM000238), and three voltage-gated sodium channel subtypes (rNaV1.2, Genbank NM012647; rNaV1.4, Genbank M26643 and BgNaV1.1, from Blattella germanica) (r, rat; h, human) in oocytes from Xenopus laevis. The linearized plasmids were transcribed using a T7 or SP6 mMESSAGE-mMACHINE transcription kit (Life Technologies, Austin, TX, USA). Oocytes were injected with 20–50 nL of cRNA at a concentration of 1 ng·nL^−1 using a microinjector (Drummond Scientific, Broomall, PA, USA). The oocytes were stored for 1–3 days at 16 °C until sufficient expression of voltage-gated ion channels was achieved. Oocytes were maintained in an ND96 solution (in mM: 96 NaCl, 2 KCl, 1.8 CaCl2, 2 MgCl2 and 5 HEPES; pH 7.4), supplemented with 50 µg·mL^−1 gentamicin sulfate.
(§2) Two-electrode voltage-clamp recordings were performed at room temperature (18–22 °C) using a Geneclamp 500 amplifier (Molecular Devices, Sunnyvale, CA, USA) controlled by a pClamp data acquisition system (Axon Instruments, Union City, CA, USA). ND96 was used as bath solution. Whole-cell currents from oocytes were recorded 1–3 days after injection. Voltage and current electrodes were filled with KCl (3 M). The resistance of both electrodes was kept between 0.8–1.0 MΩ. The elicited currents were filtered at 0.5 or 2 kHz using a four-pole low-pass Bessel filter. Leak subtraction was performed using a -P/4 protocol. KV1.1-KV1.6 and Shaker IR currents were evoked by 500 ms depolarization to 0 mV, followed by a 500 ms pulse to −50 mV, from a holding potential of −90 mV. KV2.1, KV3.1, KV4.2, and KV4.3 currents were elicited by 500 ms pulses to + 20 mV from a holding potential of −90 mV. Current traces of hERG channels were elicited by applying a +40 mV pulse for 2.5 s, followed by a step to −120 mV for 2.5 s. Sodium current traces were evoked by 100 ms depolarization steps from a holding potential of −90 mV to 0 mV. Concentration-response curves were constructed by adding different AbeTx1 or analogs concentrations directly to the bath solution. The percentage of the KV blockade was plotted against the logarithm of the applied concentrations and fitted with the Hill Equation (1):y = 100/[1 + (IC50/[toxin]) × h](1) where y is the amplitude of the toxin-induced effect, IC50 is the toxin concentration at half-maximal efficacy, [toxin] is the toxin concentration, and h is the Hill coefficient. To investigate the effects on the voltage dependence of activation, current traces were evoked by 10 mV depolarization steps from a holding potential of −90 mV. Data were normalized to the maximal K^+ current amplitude, plotted against prepulse potential, and fitted using the Boltzmann Equation (2):IK/Imax = [1 + (exp(Vg − V)/k] − 1(2) where Imax represents maximal potassium current (IK), Vg is the voltage corresponding to half-maximal current, and k is the slope factor. Each experimental data represents mean ± standard error of at least three oocytes (n ≥ 3) from different frogs. Effect of the toxin on current-voltage experiments was statistically examined by comparing the control condition and the presence of toxin using the Student’s paired t-test. P-values < 0.05 are considered to be statistically significant. Data were analyzed using Clampfit 10.4 (Molecular Devices, Sunnyvale, CA, USA) and Origin v8.1 software (Origin Lab, Northampton, MA, USA), under the institutional license of the University of São Paulo.

rKV1.1 = target: T2, rKV1.1 (Rattus norvegicus, UniProt P10499); test: Two-electrode voltage-clamp on Xenopus laevis oocytes expressing rKV1.1; assay type: cell-based; conditions: concentration-response curve, percentage blocked current fitted with Hill equation; TEVC oocytes, 0 mV from −90 mV; mean ± SE, n ≥ 3; SEM; read-out: KV1.1 IC50
T2 construct: expressed in transfected cells; host or cells: Xenopus laevis oocytes injected with cRNA
T2 sequence (P10499 whole entry): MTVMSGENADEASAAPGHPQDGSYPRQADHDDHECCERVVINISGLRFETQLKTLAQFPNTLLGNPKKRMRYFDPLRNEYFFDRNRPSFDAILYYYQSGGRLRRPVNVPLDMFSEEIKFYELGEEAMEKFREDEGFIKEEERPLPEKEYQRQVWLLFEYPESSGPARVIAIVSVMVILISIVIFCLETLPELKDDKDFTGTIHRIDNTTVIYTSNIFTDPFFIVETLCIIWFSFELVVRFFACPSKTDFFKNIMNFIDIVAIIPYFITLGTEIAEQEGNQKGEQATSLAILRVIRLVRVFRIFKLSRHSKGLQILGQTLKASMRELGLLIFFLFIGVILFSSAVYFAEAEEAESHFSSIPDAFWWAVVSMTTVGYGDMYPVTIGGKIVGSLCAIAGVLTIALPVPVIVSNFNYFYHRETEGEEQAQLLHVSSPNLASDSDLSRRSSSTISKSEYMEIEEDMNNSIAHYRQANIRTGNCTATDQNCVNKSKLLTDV
Description: as §1, §2

SMILES | IC50 (rKV1.6) [µM] | IC50 (rKV1.1) [µM]
C[C@@H]1NC(=O)CNC(=O)[C@H](CCCCN)NC(=O)[C@H](CO)NC(=O)[C@@H]2CSSC[C@H](NC1=O)C(=O)N[C@@H](CCCNC(=N)N)C(=O)N1CCC[C@H]1C(=O)N[C@@H](CCCCN)C(=O)N1CCC[C@H]1C(=O)N[C@@H](CC(N)=O)C(=O)N[C@H](C(=O)NCC(=O)O)CSSC[C@H](NC(=O)[C@@H](N)CCCNC(=N)N)C(=O)N[C@@H](CCCCN)C(=O)N[C@@H]([C@@H](C)O)C(=O)N2 [Arg9Ala] (H-RCKTCSKGACRPKPNCG-OH; disulfide 2-16, 5-10) | 2.44 | 8.5
C[C@@H]1NC(=O)[C@@H]2CSSC[C@H](NC(=O)[C@H]([C@@H](C)O)NC(=O)[C@H](CCCCN)NC(=O)[C@@H](NC(=O)[C@@H](N)CCCNC(=N)N)CSSC[C@@H](C(=O)NCC(=O)O)NC(=O)[C@H](CC(N)=O)NC(=O)[C@@H]3CCCN3C(=O)[C@H](CCCCN)NC(=O)[C@@H]3CCCN3C1=O)C(=O)N[C@@H](CO)C(=O)N[C@@H](CCCCN)C(=O)NCC(=O)N[C@@H](CCCNC(=N)N)C(=O)N2 [Arg11Ala] (H-RCKTCSKGRCAPKPNCG-OH; disulfide 2-16, 5-10) | 0.811 ± 0.179 | 21.5
